From patent US20260035339A1, “TETRAHYDRONAPHTHALENE DERIVATIVE” (ATRANSEN PHARMA LTD., priority 2022, published 2026)

Columns and labels:
[1] = test system: Mouse colorectal cancer-derived CT26 cells; assay: Cell proliferation inhibitory effect using mouse colorectal cancer cells (CCK-8 assay); assay type: cell-based; details: 72 hours compound treatment, read-out: Evaluation of IC50 (proliferation inhibition rate of 50%)
How it was run: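 Cells seeded at 1000 per well in RPMI 1640 with 10% FBS; after 24 h medium replaced with compound at 0.01-30 μM. Viable cells counted by CCK-8 after 72 h of treatment, and IC50 taken as the concentration giving 50% proliferation inhibition relative to untreated control.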

[2] = test system: Human breast cancer cells MCF7; assay: BNCT-enhancing effect by L-BPA confinement using cultured cells (colony formation after neutron irradiation); assay type: cell-based; details: MCF7 loaded with 100 μM L-[10B]BPA, then 10 μM compound for 60 minutes; neutron rays 5 MW for 4 minutes
Procedure: Human breast cancer cells MCF7 were plate-cultured in an RPMI medium for 48 hours, then replaced with an RPMI medium containing 100 μM of L-[10B]BPA, and cultured for 15 minutes to allow the L-[10B]BPA to be taken up in the cells. After washing with HBSS, the cells were cultured in an RPMI medium for 60 minutes, and after further washing with HBSS, the cells were peeled off and stored in HBSS at room temperature for 1.5 hours ((−) in FIG. 3A). L-BPA was taken up in the cells, washed with HBSS and then cultured in an RPMI medium containing the compound of Example 1-1 (10 μM) obtained in the present invention for 60 minutes, and after further washing with HBSS, the cells were peeled off and stored in HBSS at room temperature for 1.5 hours ((+) in FIG. 3A). The cells were cultured in an RPMI medium containing no L-[10B]BPA for 15 minutes, and after washing with HBSS, the cells were peeled off and stored in HBSS at room temperature for 1.5 hours ((No BPA Hot control) in FIG. 3A). These three cell samples were irradiated with neutron rays (5 MW for 4 minutes). After irradiation, in order to measure viable cells, the cells were plate-cultured and the number of colonies generated after 2 weeks was measured. The number of viable cells was evaluated as surviving fraction (%) (FIG. 3A).

- IC50 [1]: ≤ 900 nM
SMILES: NC1(C(=O)O)CCc2ccc(Oc3ccc4ccccc4c3)cc2C1 (centres unmarked) [Example 1-1, 2-carboxy-7-(naphthalene-2-yloxy)-1,2,3,4-tetrahydronaphthalene-2-aminium chloride]
- BNCT-enhancing effect (surviving fraction after neutron irradiation) [2]: large BNCT-enhancing effect
